In brackets after ≈: the same amount, converted by molar mass. Where two headings read alike, the source gives them in different places.
Columns and labels:
isolated auricle = experiment: Cardiac action on the isolated auricle (Trevan preparation): amplitude of contractions; details: arrows for diminution/increase are drawings, 0 = inactive, read-out: Action on the isolated auricle: minimum concentration producing a variation of 20% in amplitude of contractions
Description: (§1) This was examined according to known methods in the isolated auricle (Trevan preparation) and in the isolated heart of a rabbit (Langendorf preparation).
Cardiac action of the compounds in question was evaluated according to the amplitude of contractions of the isolated auricle.

[1] = Toxicity, intravenous in the mouse; details: in vivo, i.v.
Description: The toxicities of the various compound were determined intravenously in the mouse.

anaethestized dog = experiment: Action on femoral delivery, aortal pressure and cardiac rhythm in the anaesthetized dog; type: in vivo; details: for Aortal pressure, maximum variation in 30 minutes / Cardiac Rhythm, maximum variation in 30 minutes / Femoral Delivery, maximum variation in 30 minutes: i.v. perfusion over 5 min, dose 1/10 of mouse LD50, percent based on initial values; for Aortal pressure (in words) / Cardiac frequency (in words) / Vasodilator action (in words): anaesthetized dog, i.v.; for Vasodilator action (in words): 1/10 of mouse LD50
Description: This was investigated in an anaethestized dog, the compounds under test being administered by intraveneous perfusion (over 5 minutes). The various compounds under test were compared by administering all of them at a dose per kilogram corresponding to 1/10 of the mouse LD50 (I.V.).
Simultaneously were measured: variations of femoral delivery, aortal pressure, and cardiac rhythm. Table II indicates the maximum variations of these different parameters observed over the 30 minutes which followed administration of various compounds. These variations are expressed in percent based on the initial values.

[2] = tested on: isolated heart of the rabbit; experiment: Cardiac action on the isolated heart of a rabbit (Langendorf preparation); details: for EC20: Oryctolagus cuniculus, direction arrow is a drawing
Description: as §1
In the Langendorf preparation, the action of the compounds was determined from three parameters; the amplitude of contractions, coronary delivery, and rhythm. […] The results are indicated in Table 1; an arrow ↓ indicates a diminution, and an arrow ↑ an augmentation.

[3] = read-out: Amplitude of contractions: concentration producing a variation of 20%
[4] = read-out: Coronary delivery: concentration producing a variation of 20%
[5] = read-out: Rhythm: concentration producing a variation of 20%

Row | SMILES | EC20 (isolated auricle) | LD50 [1] | Aortal pressure, maximum variation in 30 minutes (anaethestized dog) | Cardiac Rhythm, maximum variation in 30 minutes (anaethestized dog) | EC20 [2, 3] | Femoral Delivery, maximum variation in 30 minutes (anaethestized dog) | EC20 [2, 4] | EC20 [2, 5] | Coronary delivery (in words) [2] | Aortal pressure (in words) (anaethestized dog) | Cardiac frequency (in words) (anaethestized dog) | Vasodilator action (in words) (anaethestized dog)
1 | CCN(CC)CCOc1ccc(N2C(=O)C=C3CCCCC32)cc1 (centres unmarked) [Example 1, 1-[4-(2-diethylaminoethoxy)-phenyl] -2-oxo-2,4,5,6,7,7a-hexahydro-indole] | 20 µg/mL (≈ 60.9 µM) | 150 mg/kg | 0% | 0% | 5 µg/mL (≈ 15.2 µM) |  |  |  |  |  |  | 
2 | CN(C)CCOc1ccc(N2C(=O)C=C3CCCCC32)cc1 (centres unmarked) [Example 5, 1-[4-(2-Dimethylaminoethoxy)-phenyl]-2-oxo-2,4,5,6,7,7a-hexahydro-indole] | 50 µg/mL (≈ 166 µM) | 90 mg/kg | 0% |  | 1 µg/mL (≈ 3.33 µM) | 0% | 20 µg/mL (≈ 66.6 µM) | 10 µg/mL (≈ 33.3 µM) |  |  |  | 
3 | O=C1C=C2CCCCC2N1c1ccc(OCCN2CCCCC2)cc1 (centres unmarked) [Example 6, 1-[4-(2-Piperidinoethoxy)-phenyl]-2-oxo-2,4,5,6,7,7a-hexahydro-indole] | 10 µg/mL (≈ 29.4 µM) | 40 mg/kg | 0% |  | 1 µg/mL (≈ 2.94 µM) | 0% | 20 µg/mL (≈ 58.7 µM) | 20 µg/mL (≈ 58.7 µM) |  |  |  | 
4 | CC(C)N(CCOc1ccc(N2C(=O)C=C3CCCCC32)cc1)C(C)C (centres unmarked) [Example 7, 1-[4-(2Diisopropylaminoethoxy)-phenyl]-2-oxo-2,4,5,6,7,7a-hexahydro-indole] | 10 µg/mL (≈ 28 µM) | 85 mg/kg | 0% | 0% | 1 µg/mL (≈ 2.8 µM) |  |  | 20 µg/mL (≈ 56.1 µM) |  |  |  | 
5 | CN(C)CCCOc1ccc(N2C(=O)C=C3CCCCC32)cc1 (centres unmarked) [Example 8, 1-[4-(3-Dimethylaminopropoxy)-phenyl]-2-oxo-2,4,5,6,7,7 a-hexahydro-indole] | 10 µg/mL (≈ 31.8 µM) | 85 mg/kg | 0% |  | 1 µg/mL (≈ 3.18 µM) |  |  | 5 µg/mL (≈ 15.9 µM) |  |  |  | 
6 | O=C1C=C2CCCCC2N1c1cccc(OCCN2CCOCC2)c1 (centres unmarked) [Example 9, 1-[3-(2-Morpholinoethoxy)-phenyl]-2-oxo-2,4,5,6,7,7a-hexahydro-indole] | 50 µg/mL (≈ 146 µM) | 170 mg/kg | 0% |  | 1 µg/mL (≈ 2.92 µM) |  | 20 µg/mL (≈ 58.4 µM) |  | augmented |  |  | 
7 | O=C1C=C2CCCCC2N1c1cccc(OCCN2CCCCC2)c1 (centres unmarked) [Example 10, 1-[3-(2-piperidinoethoxy)-phenyl]-2-oxo-2,4,5,6,7,7a-hexahydro-indole] | 5 µg/mL (≈ 14.7 µM) | 130 mg/kg |  |  | 1 µg/mL (≈ 2.94 µM) |  | 20 µg/mL (≈ 58.7 µM) | 20 µg/mL (≈ 58.7 µM) |  | hypotension | tachycardia | vasodilators
8 | CCN(CC)CCOc1cccc(N2C(=O)C=C3CCCCC32)c1 (centres unmarked) [Example 11, 1-[3-(2-Diethylaminoethoxy)-phenyl]-2-oxo-2,4,5,6,7,7a-hexahydro-indole] | 10 µg/mL (≈ 30.4 µM) | 90 mg/kg | 0% |  | 2 µg/mL (≈ 6.09 µM) |  |  | 10 µg/mL (≈ 30.4 µM) |  | without modifying aortal pressure | without modifying aortal pressure or cardiac frequency | clearly vasodilators
9 | CN(C)CCOc1cccc(N2C(=O)C=C3CCCCC32)c1 (centres unmarked) [Example 12, 1-[3-(2-Dimethylaminoethoxy)-phenyl]-2-oxo-2,4,5,6,7,7a-hexahydro-indole] | 10 µg/mL (≈ 33.3 µM) | 27.5 mg/kg |  |  | 1 µg/mL (≈ 3.33 µM) |  |  | 5 µg/mL (≈ 16.6 µM) |  | hypotension | tachycardia | vasodilators
10 | CC(C)N(CCOc1cccc(N2C(=O)C=C3CCCCC32)c1)C(C)C (centres unmarked) [Example 13, 1-[3-(2-Diisopropylaminoethoxy)-phenyl]-2-oxo-2,4,5,6,7,7a-hexahydro-indole] | 5 µg/mL (≈ 14 µM) | 55 mg/kg |  |  | 1 µg/mL (≈ 2.8 µM) |  |  | 20 µg/mL (≈ 56.1 µM) |  | hypertensives |  | 
11 | O=C1C=C2CCCCC2N1c1ccc(OCCN2CCCCC2)c(Cl)c1 (centres unmarked) [Example 14, 1-[3-chloro-4-(2-piperidinoethoxy)-phenyl]-2-oxo-2,4,5,6,7,7a-hexahydro-indole] | 10 µg/mL (≈ 26.7 µM) | 25 mg/kg | 0% |  | 1 µg/mL (≈ 2.67 µM) |  |  | 20 µg/mL (≈ 53.3 µM) |  | without modifying aortal pressure | without modifying aortal pressure or cardiac frequency | clearly vasodilators
12 | CCN(CC)CCOc1ccc(N2C(=O)C=C3CCCCC32)cc1Cl (centres unmarked) [Example 16, 1-[3-Chloro-4-(2-diethylaminoethoxy)-phenyl]-2-oxo-2,4,5,6,7,7a-hexahydro-indole] | 5 µg/mL (≈ 13.8 µM) | 22 mg/kg | 0% |  | 1 µg/mL (≈ 2.76 µM) |  |  | 1 µg/mL (≈ 2.76 µM) |  |  |  | 
13 | O=C1C=C2CCCCC2N1c1ccc(OCCN2CCOCC2)c(Cl)c1 (centres unmarked) [Example 17, 1-[3-Chloro-4-(2-morpholinoethoxy)-phenyl]-2-oxo-2,4,5,6,7,7a-hexahydro-indole] |  | 120 mg/kg | 0% |  | 1 µg/mL (≈ 2.65 µM) |  | 50 µg/mL (≈ 133 µM) | 20 µg/mL (≈ 53.1 µM) | augmented |  |  | 
14 | CC(C)N(CCOc1ccc(N2C(=O)C=C3CCCCC32)cc1Cl)C(C)C (centres unmarked) [Example 18, 1-[3-Chloro-4-(2-diisopropylaminoethoxy)-phenyl]-2-oxo-2,4,5,6,7,7a-hexahydro-indole] | 5 µg/mL (≈ 12.8 µM) | 150 mg/kg |  |  | 1 µg/mL (≈ 2.56 µM) |  |  |  |  | hypertensives |  | 
15 | CN(C)CCOc1ccc(N2C(=O)C(c3ccccc3)=C3CCCCC32)cc1 (centres unmarked) [Example 19, 1-[4-(2-Dimethylaminoethoxy)-phenyl]-2-oxo-3-phenyl-2,4,5,6,7,7a-hexahydro-indole] | 20 µg/mL (≈ 53.1 µM) | 10 mg/kg |  |  | 1 µg/mL (≈ 2.66 µM) | 0% | 5 µg/mL (≈ 13.3 µM) | 10 µg/mL (≈ 26.6 µM) | augmented |  |  | 
16 | CCN(CC)CCOc1ccc(N2C(=O)C(c3ccccc3)=C3CCCCC32)cc1 (centres unmarked) [Example 20, 1-[4-(2-diethylaminoethoxy)-phenyl]-2-oxo-3-phenyl-2,4,5,6,7,7a-hexahydro-indole] | 2 µg/mL (≈ 4.94 µM) | 38 mg/kg | 0% |  | 1 µg/mL (≈ 2.47 µM) | 0% | 5 µg/mL (≈ 12.4 µM) | 5 µg/mL (≈ 12.4 µM) | augmented |  |  | 
17 | O=C1C(c2ccccc2)=C2CCCCC2N1c1ccc(OCCN2CCOCC2)cc1 (centres unmarked) [Example 21, 1-[4-(2-morpholinoethoxy)-phenyl]-2-oxo-3-phenyl-2,4,5,6,7,7a-hexahydro-indole] | 20 µg/mL (≈ 47.8 µM) | 55 mg/kg | 0% | 0% | 1 µg/mL (≈ 2.39 µM) |  | 2 µg/mL (≈ 4.78 µM) | 10 µg/mL (≈ 23.9 µM) | augmented |  |  | 
